Test results reported in patent US10815238B2, “Antimicrobial compounds and methods of making and using the same” (BIOVERSYS AG, priority 2013, dated 2020).
Where two headings read alike, the source gives them in different places.

What was measured:
[1] = tested on: Eschericia coli (E. coli) strain ATCC25922; experiment: Standard microdilution assay, MIC against E. coli ATCC25922; type: cell-based; details: Escherichia coli
Method in brief: (§1)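 MIC determined by broth microdilution following CLSI protocols, with reference strains run in parallel for quality control. Activity scored +/− at a cutoff of 16 micrograms/mL.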

[2] = tested on: Staphylococcus aureus (S. aureus) 11540 strain; experiment: Standard microdilution assay, MIC against S. aureus 11540; type: cell-based; details: read-out: MIC S. aureus
Method in brief: as §1

[3] = E. coli strain ATCC25922, standard microdilution assay, cutoff 16 micrograms/mL, read-out: MIC E. Coli
[4] = S. aureus 11540 strain, standard microdilution assay, cutoff 16 micrograms/mL

Compound	MIC [1, 3]	MIC [2, 4]	MIC ([1]; ATCC25922, read-out: MIC E. Coli)	MIC [2]
C[C@H](N)CCCc1cc(OC(F)(F)F)c(F)c(-c2cc3cn(-c4ccc([C@H](N)CCN)cc4)c(=O)nc3[nH]2)c1 [Compound 441]	< 16 µg/mL	< 16 µg/mL	–	–
C[C@H](N)CCCc1cc(Cl)c(F)c(-c2cc3cn(-c4ccc([C@H](N)CCNC(=N)N)cc4)c(=O)nc3[nH]2)c1 [Compound 442]	< 16 µg/mL	< 16 µg/mL	–	–
C[C@H](N)CCCc1cc(OC(F)(F)F)c(F)c(-c2cc3cn(-c4ccc([C@H](N)CCNC(=N)N)cc4)c(=O)nc3[nH]2)c1 [Compound 443]	< 16 µg/mL	< 16 µg/mL	–	–
C[C@H](N)CCCc1cc(Cl)c(F)c(-c2cc3cn(-c4ccc([C@H]5CCC[C@@H](CCNC(=N)N)N5)cc4)c(=O)nc3[nH]2)c1 [Compound 444]	< 16 µg/mL	< 16 µg/mL	–	–
C[C@H](NCCCNC(=N)N)c1ccc(-n2cc3cc(-c4cc([C@H]5CC[C@@H](CN)O5)cc(Cl)c4F)[nH]c3nc2=O)cc1 [Compound 445]	< 16 µg/mL	< 16 µg/mL	–	–
C[C@H](NCCCNC(=N)N)c1ccc(-n2cc3cc(-c4cc([C@@H]5CC[C@H](CN)O5)cc(Cl)c4F)[nH]c3nc2=O)cc1 [Compound 446]	< 16 µg/mL	< 16 µg/mL	–	–
C[C@H](N)CCCc1cc(Cl)c(F)c(-c2cc3cn(-c4ccc(C(O)[C@@H]5C[C@@H](NC(=N)N)CN5)cc4)c(=O)nc3[nH]2)c1 (some centres unmarked) [Compound 447]	< 16 µg/mL	< 16 µg/mL	–	–
C[C@H](N)CCCc1cc(OC(F)(F)F)c(F)c(-c2cc3cn(-c4ccc(C(O)[C@@H]5C[C@@H](NC(=N)N)CN5)cc4)c(=O)nc3[nH]2)c1 (some centres unmarked) [Compound 448]	< 16 µg/mL	< 16 µg/mL	–	–
C[C@H](N)CCCc1cc(OC(F)(F)F)c(F)c(-c2cc3cn(-c4ccc(C(O)[C@@H]5C[C@@H](N)CN5)cc4)c(=O)nc3[nH]2)c1 (some centres unmarked) [Compound 449]	> 16 µg/mL	< 16 µg/mL	–	–
C[C@H](CCNC(=N)N)NCc1ccc(-n2cc3cc(-c4cc(CCC[C@@H](N)CO)cc(Cl)c4F)[nH]c3nc2=O)cc1 [Compound 450]	< 16 µg/mL	< 16 µg/mL	–	–
C[C@H](N)CCCc1cc(Cl)c(F)c(-c2cc3cn(-c4ccc([C@H]5COC[C@@H](CNC(=N)N)N5)cc4)c(=O)nc3[nH]2)c1 [Compound 451]	< 16 µg/mL	< 16 µg/mL	–	–
C[C@H](N)CCCc1cc(Cl)c(F)c(-c2cc3cn(-c4ccc([C@@H]5COC[C@@H](CO)N5)cc4)c(=O)nc3[nH]2)c1 [Compound 452]	> 16 µg/mL	> 16 µg/mL	–	–
C[C@H](N)CCCc1cc(OC(F)(F)F)c(F)c(-c2cc3cn(-c4ccc([C@@H]5COC[C@@H](CO)N5)cc4)c(=O)nc3[nH]2)c1 [Compound 453]	> 16 µg/mL	> 16 µg/mL	–	–
C[C@H](N)CCCc1cc(Cl)c(F)c(-c2cc3cn(-c4ccc([C@H](N)CCCN)cc4)c(=O)nc3[nH]2)c1 [Compound 454]	< 16 µg/mL	< 16 µg/mL	–	–
C[C@H](N)CCCc1cc(OC(F)(F)F)c(F)c(-c2cc3cn(-c4ccc([C@H](N)CCCN)cc4)c(=O)nc3[nH]2)c1 [Compound 455]	< 16 µg/mL	< 16 µg/mL	–	–
C[C@H](N)CCCc1cc(Cl)c(F)c(-c2cc3cn(-c4ccc([C@H](N)CCCNC(=N)N)cc4)c(=O)nc3[nH]2)c1 [Compound 456]	< 16 µg/mL	< 16 µg/mL	–	–
C[C@H](N)CCCc1cc(OC(F)(F)F)c(F)c(-c2cc3cn(-c4ccc([C@H](N)CCCNC(=N)N)cc4)c(=O)nc3[nH]2)c1 [Compound 457]	< 16 µg/mL	< 16 µg/mL	–	–
C[C@H](N)CCCc1cc(Cl)c(F)c(-c2cc3cn(-c4ccc(C5(N)CNC5)cc4)c(=O)nc3[nH]2)c1 [Compound 458]	> 16 µg/mL	< 16 µg/mL	–	–
C[C@H](N)CCCc1cc(Cl)c(F)c(-c2cc3cn(-c4ccc(C(=O)NCCCNC(=N)N)cc4)c(=O)nc3[nH]2)c1 [Compound 459]	< 16 µg/mL	< 16 µg/mL	–	–
C[C@H](N)CCCc1cc(Cl)c(F)c(-c2cc3cn(-c4ccc(C(=N)NCCCN)cc4)c(=O)nc3[nH]2)c1 [Compound 460]	< 16 µg/mL	< 16 µg/mL	–	–
C[C@H](N)CCCc1cc(OC(F)(F)F)c(F)c(-c2cc3cn(-c4ccc(C(=O)NCCCNC(=N)N)cc4)c(=O)nc3[nH]2)c1 [Compound 461]	< 16 µg/mL	< 16 µg/mL	–	–
C[C@H](N)CCCc1cc(OC(F)(F)F)c(F)c(-c2cc3cn(-c4ccc(C(=N)NCCCN)cc4)c(=O)nc3[nH]2)c1 [Compound 462]	< 16 µg/mL	< 16 µg/mL	–	–
C[C@H](N)CCCc1cc(Cl)c(F)c(-c2cc3cn(-c4ccc([C@@H]5COC[C@@H](CN)N5)cc4)c(=O)nc3[nH]2)c1 [Compound 464]	< 16 µg/mL	< 16 µg/mL	–	–
C[C@H](N)CCCc1cc(Cl)c(F)c(-c2cc3cn(-c4ccc([C@@H]5COC[C@@H](CNC(=N)N)N5)cc4)c(=O)nc3[nH]2)c1 [Compound 465]	< 16 µg/mL	< 16 µg/mL	–	–
C[C@H](N)CCCc1cc(OC(F)(F)F)c(F)c(-c2cc3cn(-c4ccc([C@@H]5COC[C@@H](CNC(=N)N)N5)cc4)c(=O)nc3[nH]2)c1 [Compound 466]	< 16 µg/mL	< 16 µg/mL	–	–

Compound	MIC [1, 3]	MIC [2, 4]	MIC ([1]; ATCC25922, read-out: MIC E. Coli)	MIC [2]
CCOP(=O)(OCC)OC[C@H](N)CCCc1cc(Cl)c(F)c(-c2cc3cn(-c4ccc([C@H](C)NCCCNC(=N)N)cc4)c(=O)nc3[nH]2)c1 [Compound 467]	< 16 µg/mL	< 16 µg/mL	–	–
CCOP(=O)(OCC)OC[C@@H]1COC[C@H](c2ccc(-n3cc4cc(-c5cc(CCC[C@H](C)N)cc(Cl)c5F)[nH]c4nc3=O)cc2)N1 [Compound 468]	> 16 µg/mL	< 16 µg/mL	–	–
C[C@H](N)CCCc1cc(Cl)c(F)c(-c2cc3cn(-c4ccc([C@H]5CC(CCNC(=N)N)CN5)cc4)c(=O)nc3[nH]2)c1 (some centres unmarked) [Compound 469]	< 16 µg/mL	< 16 µg/mL	–	–
C[C@H](N)CCCc1cc(OC(F)(F)F)c(F)c(-c2cc3cn(-c4ccc([C@H]5CC(CCNC(=N)N)CN5)cc4)c(=O)nc3[nH]2)c1 (some centres unmarked) [Compound 470]	< 16 µg/mL	< 16 µg/mL	–	–
C[C@H](N)CCCc1cc(Cl)c(F)c(-c2cc3cn(-c4ccc(C(O)CNC(=N)N)cc4)c(=O)nc3[nH]2)c1 (some centres unmarked) [Compound 471]	< 16 µg/mL	< 16 µg/mL	–	–
C[C@H](N)CCCc1cc(OC(F)(F)F)c(F)c(-c2cc3cn(-c4ccc(C(O)CNC(=N)N)cc4)c(=O)nc3[nH]2)c1 (some centres unmarked) [Compound 472]	< 16 µg/mL	< 16 µg/mL	–	–
C[C@H](N)CCCc1cc(Cl)c(F)c(-c2cc3cn(-c4ccc(C(N)CNC(=N)N)cc4)c(=O)nc3[nH]2)c1 (some centres unmarked) [Compound 473]	< 16 µg/mL	< 16 µg/mL	–	–
C[C@H](N)CCCc1cc(OC(F)(F)F)c(F)c(-c2cc3cn(-c4ccc(C(N)CNC(=N)N)cc4)c(=O)nc3[nH]2)c1 (some centres unmarked) [Compound 474]	< 16 µg/mL	< 16 µg/mL	–	–
C[C@H](N)CCCc1cc(Cl)c(F)c(-c2cc3cn(-c4ccc(C(=O)NCCCN)cc4)c(=O)nc3[nH]2)c1 [Compound 475]	< 16 µg/mL	< 16 µg/mL	–	–
C[C@H](NCCCNC(=N)N)c1ccc(-n2cc3cc(-c4cc(CCC[C@H](N)CO)cc(Cl)c4F)[nH]c3nc2=O)cc1 [Compound 476]	< 16 µg/mL	< 16 µg/mL	–	–
C[C@H](N)CCCc1cc(Cl)c(F)c(-c2cc3cn(-c4ccc(C(=N)NCCCNC(=N)N)cc4)c(=O)nc3[nH]2)c1 [Compound 477]	< 16 µg/mL	< 16 µg/mL	–	–
C[C@H](N)CCCc1cc(Cl)c(F)c(-c2cc3cn(-c4ccc([C@@H]5CCC[C@@H](CCn6ccnn6)N5)cc4)c(=O)nc3[nH]2)c1 [Compound 478]	> 16 µg/mL	> 16 µg/mL	–	–
C[C@H](N)CCCc1cc(OC(F)(F)F)c(F)c(-c2cc3cn(-c4ccc([C@@H]5CCC[C@@H](CCn6ccnn6)N5)cc4)c(=O)nc3[nH]2)c1 [Compound 479]	> 16 µg/mL	> 16 µg/mL	–	–
C[C@H](N)CCCc1cc(OC(F)(F)F)c(F)c(-c2cc3cn(-c4ccc(C(CO)CNC(=N)N)cc4)c(=O)nc3[nH]2)c1 (some centres unmarked) [Compound 480]	< 16 µg/mL	< 16 µg/mL	–	–
C[C@H](N)CCCc1cc(OC(F)(F)F)c(F)c(-c2cc3cn(-c4ccc([C@H](C)NCCC(CC5CNC5)NC(=N)N)cc4)c(=O)nc3[nH]2)c1 (some centres unmarked) [Compound 481]	< 16 µg/mL	< 16 µg/mL	–	–
N=C(N)NCC[C@H]1CC[C@H](c2ccc(-n3cc4cc(-c5cc(CCC[C@@H](N)CO)cc(Cl)c5F)[nH]c4nc3=O)cc2)N1 [Compound 482]	< 16 µg/mL	< 16 µg/mL	–	–
NCC[C@@H]1CCC[C@@H](c2ccc(-n3cc4cc(-c5cc(CCC[C@@H](N)CO)cc(Cl)c5F)[nH]c4nc3=O)cc2)N1 [Compound 483]	< 16 µg/mL	< 16 µg/mL	–	–
N=C(N)NCC[C@@H]1CCC[C@@H](c2ccc(-n3cc4cc(-c5cc(CCC[C@@H](N)CO)cc(Cl)c5F)[nH]c4nc3=O)cc2)N1 [Compound 484]	< 16 µg/mL	< 16 µg/mL	–	–
C[C@H](N)CCCc1cc(-c2cc3cn(-c4ccc([C@@H]5CCC[C@@H](CCN)N5)cc4)c(=O)nc3[nH]2)cc(C(F)(F)F)c1 [Compound 485]	< 16 µg/mL	< 16 µg/mL	–	–
C[C@H](N)CCCc1cc(-c2cc3cn(-c4ccc([C@@H]5CCC[C@@H](CCNC(=N)N)N5)cc4)c(=O)nc3[nH]2)cc(C(F)(F)F)c1 [Compound 486]	< 16 µg/mL	< 16 µg/mL	–	–
C[C@H](NCCCNC(=N)N)c1ccc(-n2cc3cc(-c4cc(CCC[C@@H](N)COP(=O)(O)O)cc(Cl)c4F)[nH]c3nc2=O)cc1 [Compound 487]	< 16 µg/mL	< 16 µg/mL	–	–
C[C@H](NCCCNC(=N)N)c1ccc(-n2cc3cc(-c4cc(CCC[C@@H](N)COP(=O)(Oc5ccccc5)Oc5ccccc5)cc(Cl)c4F)[nH]c3nc2=O)cc1 [Compound 488]	–	–	< 16 µg/mL	< 16 µg/mL
C[C@H](N)CCCc1cc(Cl)c(F)c(-c2cc3cn(-c4ccc([C@@H]5CCC[C@@H](Cc6cnn[nH]6)N5)cc4)c(=O)nc3[nH]2)c1 [Compound 489]	> 16 µg/mL	> 16 µg/mL	–	–
C[C@H](N)CCCc1cc(Cl)c(F)c(-c2cc3cn(-c4ccc(CN[C@H](CCN)CNc5nccs5)cc4)c(=O)nc3[nH]2)c1 [Compound 490]	< 16 µg/mL	< 16 µg/mL	–	–
